# Values of other authors, collected in patent US20100135984A1, “Anti-inflammatory compositions and methods” (Searete LLC, a limited liability corporation of the State …, priority 2008, published 2010).
# Assays:
# [1] = tested on: Src family kinase
# [2] = mice
# [3] = single agent, infused at 400 mg over one hour
# [4] = target: Fyn (Homo sapiens, UniProt P06241); settings: at nanomolar concentrations
# [5] = tested on: proteasome; settings: cultured breast cancer cells; copper-bound
# [6] = tested on: aldehyde dehydrogenase
# Sequence of Fyn (P06241 whole entry, species assumed): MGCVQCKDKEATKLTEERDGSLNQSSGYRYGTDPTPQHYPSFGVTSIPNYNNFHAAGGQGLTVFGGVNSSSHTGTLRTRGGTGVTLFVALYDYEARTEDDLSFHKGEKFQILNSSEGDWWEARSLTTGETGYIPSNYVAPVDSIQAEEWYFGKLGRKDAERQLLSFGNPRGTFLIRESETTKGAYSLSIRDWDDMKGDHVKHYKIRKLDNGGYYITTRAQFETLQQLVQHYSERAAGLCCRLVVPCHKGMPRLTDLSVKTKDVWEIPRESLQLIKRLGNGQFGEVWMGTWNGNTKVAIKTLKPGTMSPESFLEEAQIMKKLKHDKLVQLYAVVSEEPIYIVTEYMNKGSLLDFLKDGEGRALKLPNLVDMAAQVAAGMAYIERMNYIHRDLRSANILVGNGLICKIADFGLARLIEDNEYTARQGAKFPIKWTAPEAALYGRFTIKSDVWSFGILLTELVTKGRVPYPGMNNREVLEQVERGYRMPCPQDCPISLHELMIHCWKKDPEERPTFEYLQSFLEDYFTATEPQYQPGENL
smiles,measurement,setting,value
CCN(CC)CCCC(C)Nc1ccnc2cc(Cl)ccc12 (stereo not drawn) [Chloroquine],inhibition of CpG-induced Src family kinase activation or its dependent cellular responses,[1],does not inhibit
"Cl.Cl.Nc1ccccc1Oc1ccc2c(N)nsc2c1 [Example M62812, 3-amino-6-(2-aminophenoxy)-1,2-benzisothiazole dihydrochloride]",prevention of lethal septic shock,[2],prevents lethal septic shock
"CCN(CC)CCCC(C)Nc1ccnc2cc(Cl)ccc12.O=P(O)(O)O.O=P(O)(O)O (stereo not drawn) [chloroquine phosphate, 7-chloro-4-[[4-(diethylamino)-1-methylbutyl]amino]quinoline phosphate (1:2)]",tolerability of infusion,[3],without complication
"Cc1nc(Nc2ncc(C(=O)Nc3c(C)cccc3Cl)s2)cc(N2CCN(CCO)CC2)n1.O [dasatinib, N-(2-chloro-6-methylphenyl)-2-[[6-[4-(2-hydroxyethyl)-1-piperazinyl]-2-methyl-4-pyrimidinyl]amino]-5-thiazolecarboxamide, monohydrate]",inhibition of Fyn,[4],inhibits
"CCN(CC)C(=S)SSC(=S)N(CC)CC [disulfiram, 1-(diethylthiocarbamoyldisulfanyl)-N,N-diethyl-methanethioamide]",proteasomal activity,[5],inhibits proteasomal activity
same,inhibition of aldehyde dehydrogenase,[6],inhibits aldehyde dehydrogenase without toxicity
